Laboratory results published in patent US11903931B2, “Salts of selective estrogen receptor degraders” (InventisBio Co., Ltd., priority 2018, dated 2024).
Structures can show the parent of a compound that is named as a salt.

Key:
[1] = Dynamic moisture sorption analysis (DVS); type: physicochemical
Method: Dynamic moisture sorption analysis (DVS): DVS was determined using IGAsorp (Hiden Isochema, UK). The sample was tested at a targeted RH (relative humidity) of 10 to 90% full cycle in step mode. The analysis was performed in 10% RH increments.

ER+ breast cancer cells = details: cited from earlier work
[2] = Solid stability test at 40° C./75% RH for 8 days (HPLC, XRPD); type: physicochemical; details: for Physical and chemical stability / XRPD patterns after storage: 40° C./75% RH for 8 days; for Purity at 8 days / Purity at 0 day: HPLC; for Purity at 8 days: after 40° C./75% RH for 8 days; for Purity at 0 day: start of stability test
Method: HPLC ANALYSIS: a representative HPLC method is shown below, which can be used, for example, to analyze the purity, solubility, and stability of the salts herein.
For stability test: About 20 mg of Compound FA, L-lysine salt and meglumine salt (Form I) were weighed into vials, and put at the condition of 40° C./75% RH for 8 days. At 0 and 8 days, the solid sample was dissolved using acetonitrile/water (1/1) to make a solution with the concentration of 0.2 mg/mL. Sample solutions were analyzed by HPLC and solid samples were examined by XRPD.

[3] = compared with fulvestrant, GDC-0810 and AZD9496; cited from earlier work
[4] = Solubility test in pH 1.2 or pH 6.8 buffer (saturated solutions, HPLC; remaining solids by XRPD); type: physicochemical; details: for XRPD analysis of remaining solids after solubility test: 24 hours, medium not stated; for XRPD patterns at 24 h: remaining solid
Method: For solubility test: About 20 mg of Compound FA, L-lysine salt and meglumine salt (Form I) were weighed into vials, added 3 mL of pH1.2 or pH 6.8 buffer to make saturated solutions. All suspensions were kept shaking with 200 rpm at room temperature for up to 24 hours. […] At 24 hours, remaining solids were collected and determined by XRPD.

[5] = Physical treatment (grinding) of Form I; type: physicochemical; details: grinded for 2 min and 5 min
Method: Physical treatment of Form I: Form I of meglumine salt was grinded for 2 min and 5 min. After grinding, the crystallinity declined, but the crystal form was still Form I.

[6] = Solid stability test of Form I at 25° C./92.5% RH for 10 days (XRPD); type: physicochemical
Method: Solid stability test of Form I at 92.5% RH for 10 days: About 20 mg of meglumine salt Form I was put into the condition of 25° C./92.5% RH for 10 days. At 10 days, the sample was analyzed by XRPD.

[7] = Meglumine salt form interconversion study (slurry in IPA or water, XRPD); type: physicochemical; details: for Final crystal form: Water
Method: Interconversion study: Interconversion studies were carried out by mixing the same amount of different form solids in IPA or water, respectively. Suspensions were kept stirring at room temperature and 60° C. for several days, during which suspensions were filtrated and analyzed by XRPD.

ER = biological target: T1, ER (Homo sapiens, UniProt P03372); details: intramuscular injection monthly; cited from earlier work
T1 sequence (P03372 1-595): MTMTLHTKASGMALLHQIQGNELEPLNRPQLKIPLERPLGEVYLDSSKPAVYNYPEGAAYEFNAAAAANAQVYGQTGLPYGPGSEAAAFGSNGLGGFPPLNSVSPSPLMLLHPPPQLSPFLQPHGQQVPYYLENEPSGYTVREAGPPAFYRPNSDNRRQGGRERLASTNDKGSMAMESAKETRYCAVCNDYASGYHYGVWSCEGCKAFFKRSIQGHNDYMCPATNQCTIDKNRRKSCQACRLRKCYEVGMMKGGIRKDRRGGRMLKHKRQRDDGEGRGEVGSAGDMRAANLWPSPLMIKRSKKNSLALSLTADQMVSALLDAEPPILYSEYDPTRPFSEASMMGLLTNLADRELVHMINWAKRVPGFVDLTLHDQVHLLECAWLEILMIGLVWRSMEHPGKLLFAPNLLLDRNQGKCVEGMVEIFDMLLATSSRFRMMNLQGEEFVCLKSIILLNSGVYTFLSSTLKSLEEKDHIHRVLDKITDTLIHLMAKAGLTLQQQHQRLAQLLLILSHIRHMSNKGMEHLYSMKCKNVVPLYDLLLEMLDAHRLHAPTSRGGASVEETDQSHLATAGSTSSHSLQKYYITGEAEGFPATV

SMILES	XRPD pattern after DVS test [1]	Moisture adsorbed (DVS) ([1]; at 80% RH)	Growth of ER+ breast cancer cells (ER+ breast cancer cells)	Physical and chemical stability [2]	XRPD patterns after storage [2]	Purity at 8 days [2] [Area %]	Purity at 0 day [2] [Area %]	Human hepatocyte clearance [3]	XRPD analysis of remaining solids after solubility test [4]	Stability in pH 1.2 buffer solution (HPLC) ([4]; pH 1.2 buffer)	XRPD patterns at 24 h ([4]; pH 1.2 buffer)	XRPD patterns at 24 h ([4]; pH 6.8 buffer)	Crystal form after grinding [5]	Crystallinity after grinding [5]	Crystal form after storage (XRPD) [6]	Final crystal form ([7]; 25° C.)	Final crystal form ([7]; 60° C.)	Relative stability of crystal forms ([7]; in water at 60° C. and IPA)	ER degradation in clinical samples (ER) [%]
C[C@@H]1Cc2c([nH]c3ccccc23)[C@@H](c2c(Cl)cc(/C=C/C(=O)O)cc2Cl)N1CC(C)(C)F [Compound FA, (E)-3-(3,5-dichloro-4-((1R,3R)-2-(2-fluoro-2-methylpropyl)-3-methyl-2,3,4,9-tetrahydro-1H-pyrido[3,4-b]indol-1-yl)phenyl)acrylic acid]	didn't change	about 1.7%	inhibited the growth	physically and chemically stable	not changed	96.31	98.02	better human hepatocyte clearance	became lower	unstable	Low crystallinity	Low crystallinity	–	–	–	–	–	–	–
C[C@@H]1Cc2c([nH]c3ccccc23)[C@@H](c2c(Cl)cc(/C=C/C(=O)O)cc2Cl)N1CC(C)(C)F [Meglumine salt, Meglumine (E)-3-(3,5-dichloro-4-((1R,3R)-2-(2-fluoro-2-methylpropyl)-3-methyl-2,3,4,9-tetrahydro-1H-pyrido[3,4-b]indol-1-yl)phenyl)acrylate]	–	–	–	physically and chemically stable	not changed	99.66	99.68	–	became lower	unstable	No change	Low crystallinity	still Form I	declined	remained unchanged	Dihydrate	Form I	most stable crystal form	–
C[C@]12CC[C@@H]3c4ccc(O)cc4C[C@@H](CCCCCCCCC[S+]([O-])CCCC(F)(F)C(F)(F)F)[C@H]3[C@@H]1CC[C@@H]2O (stereo partly drawn) [fulvestrant]	–	–	–	–	–	–	–	–	–	–	–	–	–	–	–	–	–	–	~50
